The subject of experiment [1] is Human immunodeficiency virus 1. Nature of the experiment: Antiviral activity against HIV1 infected in CEM-SS cells assessed as virus-induced cytopathic effect by XTT assay. The format is functional, organism-based. The note with it: for IC50: Human immunodeficiency virus 1, CEM-SS. In general terms: Cytopathic effects are the visible damage that an infection or toxin causes in cultured cells.

Experiment [2] concerns the target Human immunodeficiency virus type 1 reverse transcriptase (Human immunodeficiency virus 1, UniProt Q72547). The experiment in a line: Inhibition of HIV1 reverse transcriptase.

As usually defined, the IC50 is the concentration that gives 50% inhibition.

Calls of active or inactive are those of the source. The calls are words filed in the database; no cut-off is given here.

`CC(C)=CCOc1c(CC=C(C)C)c(O)nc2ccccc12`: the IC50 in experiment [1] came out at 26.9 µM; in experiment [2], 8 µM.
As to `COc1c2ccc(OCC[C@H](C)O)cc2nc2occc12`, the outcome in experiment [1] was inactive.
For `C=CC(C)(C)C1(CC=C(C)C)C(=O)Nc2ccccc2C1=O` (configuration not stated) [BUCHAPINE], the 50% inhibitory concentration (IC50) stood at 29 µM in experiment [1] and 12 µM in experiment [2].
As to `COC(=O)/C(C)=C/COc1ccc2c(OC)c3ccoc3nc2c1`, the result in experiment [1] was inactive.
As for `COC(=O)[C@@H](C)CCOc1ccc2c(OC)c3ccoc3nc2c1`, the outcome in experiment [1] was inactive.
